Measurements published in patent US9868736B2, “Deubiquitinase inhibitors and methods for use of the same” (THE REGENTS OF THE UNIVERSITY OF MICHIGAN, priority 2013, dated 2018).
Values after ≈ are worked out from the molar mass of the structure shown. “Also recorded” adds a separate entry of the source.

How the values were obtained:
Mcl-1, PARP = assay: Mcl-1 level and PARP cleavage in treated tumor cells; assay type: cell-based
aqueous solubility = assay type: physicochemical
[1] = plasma level in mice after IV, PO or IP administration (LC/MS); assay type: in vivo, Balb/c mice; details: for concentration at 0.5 h / concentration at 2 h / concentration at 4 h / concentration at 7 h / AUC(0-t) / half-life: Balb/c, mouse, plasma
Protocol: To determine whether G9 or 067 had anti-tumor activity in animals, we first assessed their properties in mice when introduced intravenously (IV) or by oral gavage (PO). G9 or 067 was administered once to two mice per group at the indicated dosage level and route (IV or PO) and plasma was collected at the time point indicated after administration. Compound concentration in the plasma was measured by high performance liquid chromatography coupled with mass spectroscopy detection (LC/MS).
Balb/c mice were treated with either 067 or G9 dissolved in dimethyl sulfoxide: polyethylene glycol 300 (1:1) and administered as indicated. The level of each compound in the plasma of each mouse at the time point indicated is shown in the line graph. The area under the curve (AUC) was calculated and tabulated below each line graph. […] The level of each compound in the plasma of each mouse at the time point indicated is shown Table 2. Several pharmacokinetic parameters were also calculated. […] The half-life of G9 was similar to 067 when administered by IP injection (30-60 min). Based on these assessments, G9 was further evaluated for anti-tumor activity in mice.

MM1.S tumor = MM1.S tumor growth in NSG mice; assay type: in vivo, NOD/SCID/gamma-2 knockout mice (NSG)
Protocol: Ten million MM1.S tumor cells were injected into the dorsal region of twenty female NOD/SCID/gamma-2 knockout mice (NSG) weighing ˜20 grams each. After 3 weeks tumors became visible and measurable with calipers. Mice were separated into four groups of 5 mice each and IP injected with G9 dissolved in 55% dimethyl sulfoxide, 25% polyethylene glycol 300, 20% phosphate-buffered saline at dose levels of 0, 2.5, 5 and 10 mg/kg mouse body weight. Animals were injected once per day for 14 days and tumor growth (measured with calipers) and animal weight were monitored over the treatment interval. The resulting changes in tumor growth for each group are shown and represented as the average+/−standard error of the mean for each group. The p-values were calculated using GraphPad InStat. P-values lower than 0.05 are considered significant. […] Animal weight was not affected by G9 injection in any of the mice. […] Twenty female NSG mice were inoculated subcutaneously with 10 million MM1.S cells in Matrigel and cell culture media (1:1) in a total volume of 0.1 mL. When tumors were measurable with calibers (3 weeks post tumor cell injection), mice were divided into 4 groups of five mice each and treated with the dose of G9 indicated. Tumor growth (left) and animal weight (right) were recorded at the interval noted. The results represent the average+/−SD of 5 animals per data point. P-values <0.05 are considered significant and were calculated using GraphPad InStat.
A second animal study was conducted in NSG mice with mice receiving higher dose levels of G9. Tumor inoculation and compound administration were similar to those utilized in the lower dose study. However, 3 mice per treatment group were used in this study and additional G9 doses were tested for safety and efficacy. […] NSG mice were inoculated with MM1.S tumors as described in FIG. 7. When tumors were measurable with calipers, mice were placed into 5 groups of 3 mice each and treated with G9 at 0, 5, 10, 15 and 20 mg/kg for 12 days with daily injection. Tumor size (left) and animal weight (right) were recorded over the treatment interval. […] The result of G9 treatment is also depicted as tumor volume over time for each treatment group (FIG. 4—top). Tumors extracted from each of the three mice in each treatment group following the last injection were photographed and shown in FIG. 4 (bottom). […] Control and treated mouse tumor sizes are shown on the left. Bars from left to right in each treatment group represent tumor size after 0, 4, 6, 8 and 11 days of treatment. Each bar represents the average+/−S.D. of measurements made in 3 mice per group. The significance of change in tumor volume between treated and control mice was calculated using GraphPad InStat. P-values<0.05 are considered significant. On the bottom, tumors were extracted from control and treated mice and photographed. Each row illustrates tumor from each of the three mice in the treatment group noted on the top of each row.

murine norovirus = assay: antiviral screen against murine norovirus in macrophages; assay type: cell-based; details: RAW cells, Swiss Webster and Balb/c bone marrow derived macrophages, FIG. 8
Text: G9 was screened in RAW cells, Swiss Webster bone marrow derived macrophages and Balb/c bone marrow derived macrophages, compared to vehicle (DMSO), prior compound WP1130 and compound VM030. […] VM030 has a structure of […]

[2] = tested on: Sindbis virus, Tulane virus, LaCrosse virus, Norwalk virus replicon; assay: antiviral screen against a variety of viruses; assay type: cell-based; details: Vero (Sindbis), LLC-MK (Tulane), Be2-c (LaCrosse), Norwalk virus replicon-containing cells, FIG. 9
[3] = tested on: murine norovirus, Tulane virus, Listeria monocytogenes, Toxoplasma gondii, Norwalk virus; assay: inhibition of category A and B pathogens
[4] = tested on: vemurafenib sensitive and resistant A375 melanoma cells; assay: in vitro anti-tumor efficacy in A375 melanoma cells; assay type: cell-based; details: Homo sapiens, A-375
Text: (§1) Similar results were obtained in A375R Usp5 KD cells treated with a MEK inhibitor.

Usp24 = Usp24 (Homo sapiens, UniProt Q9UPU5); assay: Usp24 inhibition
[5] = tested on: p53, pStat3, pERK, NOXA, PARP, Bid; assay: signalling and apoptosis markers in A375 cells; assay type: cell-based
Text: as §1

[6] = intravenous, 10 mg/kg, IV1 10 mg/kg
[7] = intravenous, 10 mg/kg, IV2 10 mg/kg
[8] = vemurafenib sensitive and resistant A375 cells

Usp24, sequence (Q9UPU5 whole entry): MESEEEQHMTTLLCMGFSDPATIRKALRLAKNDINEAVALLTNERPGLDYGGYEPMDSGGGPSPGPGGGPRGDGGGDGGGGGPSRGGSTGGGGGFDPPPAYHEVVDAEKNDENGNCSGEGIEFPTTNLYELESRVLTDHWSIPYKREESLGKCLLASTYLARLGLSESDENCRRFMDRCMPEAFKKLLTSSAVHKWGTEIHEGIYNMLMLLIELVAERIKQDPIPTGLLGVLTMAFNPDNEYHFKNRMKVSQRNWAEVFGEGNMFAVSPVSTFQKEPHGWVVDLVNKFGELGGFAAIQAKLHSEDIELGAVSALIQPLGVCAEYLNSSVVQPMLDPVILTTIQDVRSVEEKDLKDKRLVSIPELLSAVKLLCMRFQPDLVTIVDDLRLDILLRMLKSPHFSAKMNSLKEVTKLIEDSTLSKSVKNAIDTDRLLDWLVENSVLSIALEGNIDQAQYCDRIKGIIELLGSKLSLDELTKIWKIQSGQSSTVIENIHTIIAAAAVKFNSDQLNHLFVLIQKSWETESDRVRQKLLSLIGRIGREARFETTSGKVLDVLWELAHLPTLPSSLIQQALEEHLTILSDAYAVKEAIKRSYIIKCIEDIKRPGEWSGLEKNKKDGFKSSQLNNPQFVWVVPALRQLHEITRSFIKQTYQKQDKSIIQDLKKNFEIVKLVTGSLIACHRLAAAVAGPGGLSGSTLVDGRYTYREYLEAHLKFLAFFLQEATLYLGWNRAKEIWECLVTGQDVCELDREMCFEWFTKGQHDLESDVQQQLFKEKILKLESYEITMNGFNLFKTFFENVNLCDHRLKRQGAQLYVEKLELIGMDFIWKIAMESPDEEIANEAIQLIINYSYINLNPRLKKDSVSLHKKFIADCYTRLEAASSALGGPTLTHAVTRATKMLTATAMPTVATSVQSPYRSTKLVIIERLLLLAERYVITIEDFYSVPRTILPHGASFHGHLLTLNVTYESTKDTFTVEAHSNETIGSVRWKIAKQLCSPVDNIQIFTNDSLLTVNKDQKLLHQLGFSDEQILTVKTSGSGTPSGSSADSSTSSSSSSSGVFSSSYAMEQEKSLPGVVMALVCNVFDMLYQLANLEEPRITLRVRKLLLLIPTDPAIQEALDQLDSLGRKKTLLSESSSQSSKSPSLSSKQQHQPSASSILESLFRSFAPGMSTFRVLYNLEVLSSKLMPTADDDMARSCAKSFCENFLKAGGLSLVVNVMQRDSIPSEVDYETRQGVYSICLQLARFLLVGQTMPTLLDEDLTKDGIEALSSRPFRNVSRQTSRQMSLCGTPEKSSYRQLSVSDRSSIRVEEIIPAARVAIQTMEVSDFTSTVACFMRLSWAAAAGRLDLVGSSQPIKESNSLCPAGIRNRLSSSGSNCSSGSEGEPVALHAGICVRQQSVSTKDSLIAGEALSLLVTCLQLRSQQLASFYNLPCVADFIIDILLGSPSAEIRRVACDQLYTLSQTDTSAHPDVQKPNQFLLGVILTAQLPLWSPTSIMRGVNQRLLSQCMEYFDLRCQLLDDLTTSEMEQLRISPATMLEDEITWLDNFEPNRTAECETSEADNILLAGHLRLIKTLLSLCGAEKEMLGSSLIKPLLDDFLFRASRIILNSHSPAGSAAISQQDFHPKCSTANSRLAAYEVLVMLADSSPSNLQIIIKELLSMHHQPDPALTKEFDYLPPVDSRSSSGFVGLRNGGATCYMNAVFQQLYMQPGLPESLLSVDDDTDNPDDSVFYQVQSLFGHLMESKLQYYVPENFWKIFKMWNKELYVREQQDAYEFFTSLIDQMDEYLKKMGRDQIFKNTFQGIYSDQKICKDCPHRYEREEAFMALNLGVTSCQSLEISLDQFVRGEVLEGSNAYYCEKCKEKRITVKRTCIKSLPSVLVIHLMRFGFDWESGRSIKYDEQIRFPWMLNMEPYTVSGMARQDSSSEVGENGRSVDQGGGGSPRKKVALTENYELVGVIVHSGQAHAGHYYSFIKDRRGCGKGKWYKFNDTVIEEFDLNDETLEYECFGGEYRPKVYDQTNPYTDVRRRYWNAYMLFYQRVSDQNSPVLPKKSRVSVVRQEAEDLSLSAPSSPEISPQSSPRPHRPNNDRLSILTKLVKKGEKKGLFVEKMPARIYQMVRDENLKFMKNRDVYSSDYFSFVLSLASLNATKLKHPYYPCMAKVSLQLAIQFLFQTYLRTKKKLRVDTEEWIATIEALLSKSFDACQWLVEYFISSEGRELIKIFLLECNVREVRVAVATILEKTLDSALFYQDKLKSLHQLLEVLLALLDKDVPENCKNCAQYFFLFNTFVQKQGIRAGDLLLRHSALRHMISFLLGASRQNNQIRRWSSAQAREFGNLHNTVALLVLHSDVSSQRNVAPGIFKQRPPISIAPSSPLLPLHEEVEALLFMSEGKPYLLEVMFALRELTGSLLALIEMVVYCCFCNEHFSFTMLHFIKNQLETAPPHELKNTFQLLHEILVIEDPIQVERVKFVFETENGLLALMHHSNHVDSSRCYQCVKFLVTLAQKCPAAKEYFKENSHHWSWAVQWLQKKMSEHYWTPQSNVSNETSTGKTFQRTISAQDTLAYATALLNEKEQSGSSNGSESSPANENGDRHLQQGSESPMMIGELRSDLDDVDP

CCCC(NC(=O)/C(C#N)=C/c1nc(Cl)ccc1Cl)c1ccc(OCCN2CCOCC2)cc1 (stereo not drawn) [Compound G9, (E)-2-Cyano-3-(3,6-dichloropyridin-2-yl)-N-(1-(4-(2-morpholinoethoxy)phenyl)butyl)acrylamide]
caspase activity (PARP cleavage) (Mcl-1, PARP; MM1.ST cells, 5 μM): activation of caspase activity
Mcl-1 level (Mcl-1, PARP; MM1.ST or PCL cells, 5 μM): reduction in Mcl-1
level of Mcl-1 (Mcl-1, PARP; Z138 lymphoma cells, 1.25, 2.5 and 5 μM, 4 hours): reduce the level of a downstream target of Usp9x
solubility compared with earlier inhibitor (aqueous solubility): improved solubility
solubility (aqueous solubility; aqueous medium (not specified further)): 19.8 µM (≈ 9.97 µg/mL)
concentration at 0.5 h [1, 6]: 1880 ng/mL
concentration at 2 h [1, 6]: 395 ng/mL
concentration at 4 h [1, 6]: 126 ng/mL
concentration at 7 h [1, 6]: 38.6 ng/mL
concentration at 0.5 h [1, 7]: 1220 ng/mL
concentration at 2 h [1, 7]: 520 ng/mL
concentration at 4 h [1, 7]: 289 ng/mL
concentration at 7 h [1, 7]: 208 ng/mL
AUC(0-t) ([1]; iv, 10 mg/kg, IV1 10 mg/kg): 3730 ng·h/mL
AUC(0-t) ([1]; iv, 10 mg/kg, IV2 10 mg/kg): 3570 ng·h/mL
concentration at 0.5 h ([1]; oral, 30 mg/kg, PO1 30 mg/kg): 60.8 ng/mL
concentration at 2 h ([1]; oral, 30 mg/kg, PO1 30 mg/kg): 35.8 ng/mL
concentration at 4 h ([1]; oral, 30 mg/kg, PO1 30 mg/kg): 44.5 ng/mL
concentration at 7 h ([1]; oral, 30 mg/kg, PO1 30 mg/kg): 37.6 ng/mL
concentration at 0.5 h ([1]; oral, 30 mg/kg, PO2 30 mg/kg): 78.7 ng/mL
concentration at 2 h ([1]; oral, 30 mg/kg, PO2 30 mg/kg): 59 ng/mL
concentration at 4 h ([1]; oral, 30 mg/kg, PO2 30 mg/kg): 57.1 ng/mL
concentration at 7 h ([1]; oral, 30 mg/kg, PO2 30 mg/kg): 16.1 ng/mL
AUC(0-t) ([1]; po, 30 mg/kg, PO1 30 mg/kg): 291 ng·h/mL
AUC(0-t) ([1]; po, 30 mg/kg, PO2 30 mg/kg): 349 ng·h/mL
half-life ([1]; mice, IP injection): 0.5 to 1 h
half-life ([1]; mice, IV or PO study of Table 2): 1.5 to 2 h
bio-availability following IV administration ([1]; mice, IV): bio-available following IV administration
peak plasma levels, G9 compared with 067 ([1]; mice, IV): higher peak levels
oral bio-availability ([1]; mice, PO): poor oral bio-availability
animal weight (MM1.S tumor; IP once per day for 14 days, 2.5, 5 and 10 mg/kg): not affected
MM1.S tumor growth (MM1.S tumor; IP once per day for 14 days, 2.5, 5 and 10 mg/kg (all doses)): reduced MM1.S tumor growth
MM1.S tumor growth compared to controls (MM1.S tumor; IP once per day for 14 days, 5 and 10 mg/kg): significant reduction in MM1.S tumor growth
MM1.S tumor growth (MM1.S tumor; daily injection for 12 days, 5, 10, 15 and 20 mg/kg (all doses)): suppressed MM1.S tumor growth
animal weight (MM1.S tumor; daily injection for 12 days, 10-20 mg/kg): some weight loss
MM1.S tumor size (MM1.S tumor; daily injection for 12 days, 15 and 20 mg/kg): tumor regression
antiviral activity against murine norovirus (murine norovirus): exhibits antiviral activity against murine norovirus
antiviral activity against a variety of viruses [2]: mild to high antiviral activity; also recorded: antiviral activity against Sindbis virus and La Crosse virus
inhibition of category A and B pathogens and related family members [3]: potent inhibitor
IC50 [4]: 1000 nM
Usp24 inhibition (Usp24): inhibited the DUB Usp24
pERK, pStat3 and NOXA levels ([5]; A375R cells): reduced pERK, pStat3 and elevated NOXA levels
PARP and Bid cleavage ([5]; A375R cells, combined with vemurafenib or 5FU): induced PARP and Bid cleavage
p53 levels [5, 8]: increased p53 levels
pStat3 inhibitory activity [5, 8]: retained pStat3 inhibitory activity
